Source: patent US20230143470A1, “SMALL MOLECULE INHIBITORS OF INFLUENZA HEMAGGLUTININ” (THE SCRIPPS RESEARCH INSTITUTE, priority 2020, published 2023)

Target: H3/HK68 HA (Influenza A virus, UniProt Q91MA7)
Sequence (Q91MA7 27-521 limits assumed): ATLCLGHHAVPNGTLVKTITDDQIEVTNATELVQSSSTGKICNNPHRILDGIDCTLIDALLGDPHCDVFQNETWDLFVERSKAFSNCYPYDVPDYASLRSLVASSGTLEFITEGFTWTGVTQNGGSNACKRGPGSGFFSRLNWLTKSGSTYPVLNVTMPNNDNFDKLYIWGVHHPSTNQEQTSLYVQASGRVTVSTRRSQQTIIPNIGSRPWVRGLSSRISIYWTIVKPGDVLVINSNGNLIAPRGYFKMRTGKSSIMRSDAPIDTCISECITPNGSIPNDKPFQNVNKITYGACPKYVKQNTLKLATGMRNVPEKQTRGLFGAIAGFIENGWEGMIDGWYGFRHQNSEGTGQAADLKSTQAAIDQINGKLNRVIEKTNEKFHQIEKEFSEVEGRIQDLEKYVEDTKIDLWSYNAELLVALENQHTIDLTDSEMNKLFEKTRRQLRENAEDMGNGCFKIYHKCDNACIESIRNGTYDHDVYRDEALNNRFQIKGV

Compound | melting temperature of H3/HK68 HA
O=C(c1ccc(Cl)cc1Cl)N1CCO[C@H](c2ccccc2)C1 [F0045(R)] | does not change
O=C(c1ccc(Cl)cc1Cl)N1CCO[C@@H](c2ccccc2)C1 [F0045(S)] | does not change
